Reference: US9693997B2, “Antiviral compounds” (priority 2013, dated 2017)
Structures can show the parent of a compound that is named as a salt.

Experiments:
[1] = test system: Pseudotyped HCV GT1b particles (HCVpp), entry into Huh7-high CD81 cells; assay: microbe, parasite or virus in culture; assay type: cell-based, HCV GT1b Con1 strain; conditions: Hepatitis C virus, GT1B, 72 h, read-out: HCVpp GT-1b (EC50, μM)
[2] = test system: pseudotyped VSV G particles (VSVpp) in Huh7-high CD81 cells; assay: microbe, parasite or virus in culture; assay type: cell-based, vesicular stomatitis virus; conditions: Vesicular stomatitis virus, 72 h, read-out: VSVpp (EC50, μM)

SMILES | EC50 [1] [µM] | EC50 [2] [µM]
Nc1nc(Nc2cc(Cl)c(-c3ccc(OC4CCCN(CCC(F)(F)F)C4)cc3)c(C(F)(F)F)c2)n[nH]1 (centres unmarked) [Compound 133, N*3*-{6-Chloro-2-trifluoromethyl-4′-[1-(3,3,3-trifluoro-propyl)-piperidin-3-yloxy]-biphenyl-4-yl}-1H-[1,2,4]triazole-3,5-diamine hydrochloride] | 0.13 | > 10
C[C@H](NS(C)(=O)=O)c1ccc(-c2c(Cl)cc(Nc3n[nH]c(N)n3)cc2C(F)(F)F)cc1 [Compound 13, N—{(S)-1-[4′-(5-Amino-1H-[1,2,4]triazol-3-ylamino)-2′-chloro-6′-trifluoromethyl-biphenyl-4-yl]-ethyl}-methanesulfonamide] | 0.027 | 21
Nc1nc(Nc2cc(Cl)c(-c3ccc(NC(=O)C4CCC(F)(F)CC4)cc3)c(C(F)(F)F)c2)n[nH]1 [Compound 235, 4,4-Difluorocyclohexanecarboxylic acid [4′-(5-amino-1H-[1,2,4]triazol-3-ylamino)-2′-chloro-6′-trifluoromethyl-biphenyl-4-yl]-amide] | 0.012 | > 10
CCCCC(=O)Nc1ccc(-c2c(Cl)cc(Nc3n[nH]c(N)n3)cc2Cl)cc1 [Compound 9, Pentanoic acid [4′-(5-amino-1H-[1,2,4]triazol-3-ylamino)-2′,6′-dichloro-biphenyl-4-yl]-amide] | 0.014 | 5.05
COc1ccc(-c2c(Cl)cc(Nc3n[nH]c(N)n3)cc2C(F)(F)F)cc1S(=O)(=O)NC1(C)CN(C(=O)OC(C)(C)C)C1 [Compound 212, tert-butyl 3-(4′-(5-amino-1H-1,2,4-triazol-3-ylamino)-2′-chloro-4-methoxy-6′-(trifluoromethyl)biphenyl-3-ylsulfonamido)-3-methylazetidine-1-carboxylate] | 0.005 | 1.42
CCCOC(=O)Nc1ccc(-c2c(Cl)cc(Nc3n[nH]c(N)n3)cc2C(F)(F)F)cc1 [Compound 237, [4′-(5-amino-1H-[1,2,4]triazol-3-ylamino)-2′-chloro-6′-trifluoromethyl-biphenyl-4-yl]-carbamic acid propyl ester] | 0.058 | 3.67
C[C@@H](NS(C)(=O)=O)c1ccc(-c2c(Cl)cc(Nc3n[nH]c(N)n3)cc2C(F)(F)F)cc1 [Compound 24, N—{(R)-1-[4′-(5-Amino-1H-[1,2,4]triazol-3-ylamino)-2′-chloro-6′-trifluoromethyl-biphenyl-4-yl]-ethyl}-methanesulfonamide] | 0.058 | > 10
CN(C)C(=O)c1ccc(-c2c(Cl)cc(Nc3n[nH]c(N)n3)cc2Cl)cc1 [Compound 113, 4′-(5-Amino-1H-[1,2,4]triazol-3-ylamino)-2′,6′-dichloro-biphenyl-4-carboxylic acid dimethylamide] | 0.079 | 43.2
CS(=O)(=O)NCc1cccc(-c2c(Cl)cc(Nc3n[nH]c(N)n3)cc2C(F)(F)F)c1 [Compound 199, N-((4′-(5-amino-1H-1,2,4-triazol-3-ylamino)-2′-chloro-6′-(trifluoromethyl)biphenyl-3-yl)methyl)methanesulfonamide] | 0.196 | 31.8
Nc1nc(Nc2cc(Cl)c(-c3ccc(S(=O)(=O)N4CCC(F)(F)CC4)cc3)c(C(F)(F)F)c2)n[nH]1 [Compound 183, N3-(2-chloro-4′-(4,4-difluoropiperidin-1-ylsulfonyl)-6-(trifluoromethyl)biphenyl-4-yl)-1H-1,2,4-triazole-3,5-diamine] | 0.048 | 8.19
CC(C)(C)Oc1ccc(-c2c(Cl)cc(Nc3n[nH]c(N)n3)cc2C(F)(F)F)cc1 [Compound 230, N*3*-(4′-tert-Butoxy-6-chloro-2-trifluoromethyl-biphenyl-4-yl)-1H-[1,2,4]triazole-3,5-diamine] | 0.332 | > 10
CS(=O)(=O)c1ccc(-c2ccc(Nc3n[nH]c(N)n3)cc2S(F)(F)(F)(F)F)cc1 [Compound 288, N*3*-(4′-Methanesulfonyl-2-pentafluorosulfur-biphenyl-4-yl)-1H-[1,2,4]triazole-3,5-diamine] | 1.23 | 8.93
CS(=O)(=O)c1cccc(-c2c(F)cc(Nc3nc(N)n[nH]3)cc2F)c1 [Compound 80, N^5-(2,6-difluoro-3′-(methylsulfonyl)biphenyl-4-yl)-1H-[1,2,4]-triazole-3,5-diamine] | 0.286 | > 10
Nc1nc(Nc2ccc(-c3ccc(F)cc3)c(C(F)(F)F)c2)n[nH]1 [Compound 151, N*3*-(4′-Fluoro-2-trifluoromethyl-biphenyl-4-yl)-1H-[1,2,4]triazole-3,5-diamine] | 0.356 | 26.5
Nc1nc(Nc2ccc(-c3ccccc3)c(C(F)(F)F)c2)n[nH]1 [Compound 149, N*3*-(2-Trifluoromethyl-biphenyl-4-yl)-1H-[1,2,4]triazole-3,5-diamine] | 0.581 | 29.2
Nc1nc(Nc2ccc(-c3ccccc3F)c(C(F)(F)F)c2)n[nH]1 [Compound 150, N*3*-(2′-Fluoro-2-trifluoromethyl-biphenyl-4-yl)-1H-[1,2,4]triazole-3,5-diamine] | 0.866 | 21.3

SMILES | EC50 [1] [µM] | EC50 [2] [µM]
COc1ccc(-c2c(Cl)cc(Nc3n[nH]c(N)n3)cc2C(F)(F)F)cc1S(=O)(=O)NC1CCNCC1 [Compound 204, 4′-(5-amino-1H-1,2,4-triazol-3-ylamino)-2′-chloro-4-methoxy-N-(piperidin-4-yl)-6′-(trifluoromethyl)biphenyl-3-sulfonamide hydrochloride] | 0.011 | > 10
Nc1n[nH]c(Nc2cc(F)c(-c3cccc(F)c3)c(C(F)(F)F)c2)n1 [Compound 244] | 0.689 | 33.4
CC1(NS(=O)(=O)c2ccc(-c3c(Cl)cc(Nc4n[nH]c(N)n4)cc3C(F)(F)F)cc2)CNC1 [Compound 207, 4′-(5-amino-1H-1,2,4-triazol-3-ylamino)-2′-chloro-N-(3-methylazetidin-3-yl)-6′-(trifluoromethyl)biphenyl-4-sulfonamide hydrochloride] | 0.029 | > 10
CNS(=O)(=O)c1cccc(-c2c(Cl)cc(Nc3n[nH]c(N)n3)cc2Cl)c1 [Compound 119, 4′-(5-Amino-1H-[1,2,4]triazol-3-ylamino)-2′,6′-dichloro-biphenyl-3-sulfonic acid methylamide] | 0.046 | 3.94
CC(C)(C)NC(=O)c1ccc(-c2c(Cl)cc(Nc3n[nH]c(N)n3)cc2Cl)cc1 [Compound 8, 4′-(5-Amino-1H-[1,2,4]triazol-3-ylamino)-2′,6′-dichloro-biphenyl-4-carboxylic acid tert-butylamide] | 0.013 | > 10
CS(=O)(=O)NCCc1ccc(-c2c(Cl)cc(Nc3n[nH]c(N)n3)cc2C(F)(F)F)cc1 [Compound 38, N-{2-[4′-(5-Amino-1H-[1,2,4]triazol-3-ylamino)-2′-chloro-6′-trifluoromethyl-biphenyl-4-yl]-ethyl}-methanesulfonamide] | 0.087 | 7.01
Nc1nc(Nc2cc(Cl)c(-c3ccc(S(=O)(=O)N4CCS(=O)(=O)CC4)cc3)c(C(F)(F)F)c2)n[nH]1 [Compound 45, N*3*-[2-Chloro-4′-(1,1-dioxo-1lambda*6*-thiomorpholine-4-sulfonyl)-6-trifluoromethyl-biphenyl-4-yl]-1H-[1,2,4]triazole-3,5-diamine] | 0.101 | > 10
Nc1nc(Nc2cc(Cl)c(-c3ccc(NC(=O)C4CCS(=O)(=O)CC4)cc3)c(C(F)(F)F)c2)n[nH]1 [Compound 239] | 0.122 | > 10
Nc1nc(Nc2cc(Cl)c(-c3ccc(OCCCN4CCOCC4)cc3)c(Cl)c2)n[nH]1 [Compound 283, N*3*-[2,6-Dichloro-4′-(3-morpholin-4-yl-propoxy)-biphenyl-4-yl]-1H-[1,2,4]triazole-3,5-diamine] | 0.523 | > 10
CC(C)N1CC(C)(NS(=O)(=O)c2ccc(-c3c(Cl)cc(Nc4n[nH]c(N)n4)cc3C(F)(F)F)cc2)C1 [Compound 210, 4′-(5-amino-1H-1,2,4-triazol-3-ylamino)-2′-chloro-N-(1-isopropyl-3-methylazetidin-3-yl)-6′-(trifluoromethyl)biphenyl-4-sulfonamide hydrochloride] | 0.021 | 4.41
Nc1nc(Nc2cc(Cl)c(-c3ccc(S(=O)(=O)C4CCCNC4)cc3)c(C(F)(F)F)c2)n[nH]1 (centres unmarked) [Compound 29, N*3*-[2-Chloro-4′-(piperidine-3-sulfonyl)-6-trifluoromethyl-biphenyl-4-yl]-1H-[1,2,4]triazole-3,5-diamine; hydrochloride] | 0.09 | 3.53
Nc1nc(Nc2ccc(-c3ccccc3Cl)c(C(F)(F)F)c2)n[nH]1 [Compound 153, N*3*-(2′-Chloro-2-trifluoromethyl-biphenyl-4-yl)-1H-[1,2,4]triazole-3,5-diamine] | 1.81 | 9.61
Nc1nc(Nc2cc(Cl)c(-c3ccc(S(N)(=O)=O)cc3)c(C(F)(F)F)c2)n[nH]1 [Compound 171, 4′-(5-amino-1H-1,2,4-triazol-3-ylamino)-2′-chloro-6′-(trifluoromethyl)biphenyl-4-sulfonamide] | 0.028 | 5.23
COc1ccc(-c2c(Cl)cc(Nc3n[nH]c(N)n3)cc2C(F)(F)F)cc1S(=O)(=O)N1CCCC1 [Compound 203, N3-(2-chloro-4′-methoxy-3′-(pyrrolidin-1-ylsulfonyl)-6-(trifluoromethyl)biphenyl-4-yl)-1H-] | 0.008 | 10.6
Nc1n[nH]c(Nc2cc(F)c(-c3ccc(S(=O)(=O)N4CCOCC4)cc3)c(C(F)(F)F)c2)n1 [Compound 78, N^5-[6-Fluoro-4′-(morpholine-4-sulfonyl)-2-trifluoromethylbiphenyl-4-yl]-1H-[1,2,4]-triazole-3,5-diamine] | 0.346 | 8.18
